Consider 1 compound from BindingDB's records for doi:10.1021/jm00352a016 (1983).

Molecules are shown by their SMILES.

This test concerns the target Adenylate kinase 2 (Rattus norvegicus) (UniProt P29410). Briefly: Inhibitory activity against rat adenylate kinase II (AK-II) isoenzyme was determined in the presence of ATP, non competitive inhibition.

The term Ki denotes a measure of affinity in units of concentration, obtained from inhibition or displacement.

Regarding `Nc1ncnc2c1ncn2[C@@H]1O[C@H](CO)[C@@H](O)[C@H]1O` [[U-14C]adenosine], the Ki stood at 87 mM.
